Source: patent US9376436B2, “2-(pyridin-2yl)-1, 7-diaza-spiro [4.4] nonane-6-one compound as voltage-gated sodium channels modulators” (CONVERGENCE PHARMACEUTICALS LIMITED, priority 2011, dated 2016)
Structures can show the parent of a compound that is named as a salt. Where two headings read alike, the source gives them in different places.

Molecular target: T1, hNaV1.7 (Homo sapiens, UniProt Q15858)
T1 construct: expressed in transfected cells; host or cells: HEK293
Assay: QPatch NaV1.7 assay (whole-cell patch clamp, QPatch16x)
Type: cell-based
Settings: HEK293-hNaV1.7 cells
Procedure: The compounds of the invention were tested in a QPatch NaV1.7 assay.
HEK293-hNaV1.7 cells were grown in DMEM-F12+10% FBS culture media at 37° C. At a confluency of 50-70% cells were dissociated from culture flasks & triturated to ensure unicellular cell suspension; cell density was measured & adjusted to 2-3×10^6 cells/ml. Recordings were obtained using QPatch16x. The external solution was (in mM): NaCl, 128; KCl, 5; MgCl2, 2; CaCl2, 2; Glucose, 30; HEPES, 15; pH 7.3, 305-315 mOsm. Following seal formation and whole-cell access using internal solution (containing in mM: CsF, 135; EGTA/CsOH, 1/5; HEPES 10; NaCl, 10; pH 7.3, 310-320 mOsM), voltage pulse protocols were applied. Initially a steady state inactivation voltage protocol was used to determine the half-maximal voltage for steady state inactivation (V1/2 SSI). Two holding voltages were used to determine test drug inhibition: −90 mV, where most of the channels are in a closed state; and V1/2 SSI, where half of the channels are inactivated. Currents were elicited […] by stepping to a membrane potential of 0 mV for 20 ms. Four-point cumulative concentration responses were derived by determining the peak current amplitude at each concentration of test drug over 120 second application. Curves were fitted with the Hill equation yielding pIC50 values at −90 mV and V1/2 SSI holding potentials.

[1] = holding voltage V1/2 SSI (half of channels inactivated), read-out: QP Nav1.7 SSI vhalf pIC50 (converted)
[2] = holding voltage −90 mV (most channels closed), read-out: QP Nav1.7 −90 mV pIC50 (converted)

T1 sequence (Q15858 whole entry): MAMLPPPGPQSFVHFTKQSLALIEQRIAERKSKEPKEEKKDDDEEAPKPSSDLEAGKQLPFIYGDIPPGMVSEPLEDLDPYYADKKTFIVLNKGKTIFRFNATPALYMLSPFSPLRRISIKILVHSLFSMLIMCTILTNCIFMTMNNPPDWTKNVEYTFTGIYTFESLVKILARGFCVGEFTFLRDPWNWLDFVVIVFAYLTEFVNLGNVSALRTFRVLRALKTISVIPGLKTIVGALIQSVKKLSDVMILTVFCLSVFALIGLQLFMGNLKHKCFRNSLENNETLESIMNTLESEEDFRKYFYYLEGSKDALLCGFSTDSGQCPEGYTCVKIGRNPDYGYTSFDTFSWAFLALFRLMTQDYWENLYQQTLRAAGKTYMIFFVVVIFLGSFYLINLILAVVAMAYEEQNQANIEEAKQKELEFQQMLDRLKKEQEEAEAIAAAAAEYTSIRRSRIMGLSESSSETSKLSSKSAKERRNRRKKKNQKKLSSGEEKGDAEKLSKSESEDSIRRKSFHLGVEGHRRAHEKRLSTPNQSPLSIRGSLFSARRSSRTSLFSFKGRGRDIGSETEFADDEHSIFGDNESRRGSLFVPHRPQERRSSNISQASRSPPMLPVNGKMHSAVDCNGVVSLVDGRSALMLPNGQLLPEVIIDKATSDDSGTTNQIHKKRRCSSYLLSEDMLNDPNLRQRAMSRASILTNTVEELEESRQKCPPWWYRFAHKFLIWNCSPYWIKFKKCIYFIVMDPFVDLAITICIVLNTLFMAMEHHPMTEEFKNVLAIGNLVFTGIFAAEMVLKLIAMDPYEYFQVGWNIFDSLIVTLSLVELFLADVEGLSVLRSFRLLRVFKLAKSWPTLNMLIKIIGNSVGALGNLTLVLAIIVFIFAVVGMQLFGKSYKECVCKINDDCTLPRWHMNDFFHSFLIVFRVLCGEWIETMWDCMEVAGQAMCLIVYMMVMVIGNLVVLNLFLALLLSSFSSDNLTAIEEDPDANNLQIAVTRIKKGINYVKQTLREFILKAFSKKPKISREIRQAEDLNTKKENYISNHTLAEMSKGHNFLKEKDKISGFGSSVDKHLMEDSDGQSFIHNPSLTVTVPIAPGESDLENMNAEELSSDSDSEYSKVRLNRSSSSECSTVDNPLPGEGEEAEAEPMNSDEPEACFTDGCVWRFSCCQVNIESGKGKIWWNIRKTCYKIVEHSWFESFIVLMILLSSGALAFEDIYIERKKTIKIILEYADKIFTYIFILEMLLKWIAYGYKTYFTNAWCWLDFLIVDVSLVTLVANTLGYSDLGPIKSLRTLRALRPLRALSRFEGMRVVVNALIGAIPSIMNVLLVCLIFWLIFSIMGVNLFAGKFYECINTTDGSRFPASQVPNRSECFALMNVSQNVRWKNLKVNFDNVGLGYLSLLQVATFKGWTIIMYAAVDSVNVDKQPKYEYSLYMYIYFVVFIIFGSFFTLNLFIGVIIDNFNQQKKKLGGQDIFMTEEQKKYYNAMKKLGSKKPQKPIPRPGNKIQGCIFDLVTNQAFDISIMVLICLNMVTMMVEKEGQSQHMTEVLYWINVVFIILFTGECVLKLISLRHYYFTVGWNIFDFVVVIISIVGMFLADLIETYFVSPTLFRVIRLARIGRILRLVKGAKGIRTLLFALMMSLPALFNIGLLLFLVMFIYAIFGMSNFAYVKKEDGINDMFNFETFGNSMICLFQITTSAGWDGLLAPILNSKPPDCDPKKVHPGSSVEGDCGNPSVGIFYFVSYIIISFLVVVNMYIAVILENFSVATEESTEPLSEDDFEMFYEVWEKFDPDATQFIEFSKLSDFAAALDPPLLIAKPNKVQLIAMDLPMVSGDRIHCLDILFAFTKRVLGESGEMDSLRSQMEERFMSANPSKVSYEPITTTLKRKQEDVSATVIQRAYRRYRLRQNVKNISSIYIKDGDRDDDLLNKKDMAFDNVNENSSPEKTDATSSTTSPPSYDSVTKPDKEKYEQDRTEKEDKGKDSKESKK

Row | Structure (SMILES) | IC50 [1] | IC50 [2]
1 | O=C1NCC[C@]12CC[C@@H](c1cc(-c3ccc(C(F)(F)F)cc3)ccn1)N2 [Example 114, (2S,5R)-2-[4-[4-(Trifluoromethyl)phenyl]-2-pyridyl]-1,7-diazaspiro[4.4]nonan-6-one hydrochloride] | 15.8 µM | 79.4 µM
2 | Cc1cnc([C@H]2CC[C@]3(CCN(C)C3=O)N2)cc1-c1ccc(C(F)(F)F)cc1 [Example 42, (2R,5R)-7-Methyl-2-[5-methyl-4-[4-(trifluoromethyl)phenyl]-2-pyridyl]-1,7-diazaspiro[4.4]nonan-6-one hydrochloride] | 2 µM | 25.1 µM
3 | CCOCc1ccc(F)c(-c2ccnc([C@H]3CC[C@@]4(CCN(C)C4=O)N3)c2)c1 [Example 189, (2R,5S)-2-[4-[5-(Ethoxymethyl)-2-fluoro-phenyl]-2-pyridyl]-7-methyl-1,7-diazaspiro[4.4]nonan-6-one hydrochloride] | 25.1 µM | 251 µM
4 | CCOc1cc(-c2ccnc([C@@H]3CC[C@@]4(CCN(C)C4=O)N3)c2)c(F)cc1C [Example 150, (2S,5S)-2-[4-(5-Ethoxy-2-fluoro-4-methyl-phenyl)-2-pyridyl]-7-methyl-1,7-diazaspiro[4.4]nonan-6-one hydrochloride] | 12.6 µM | 126 µM
5 | O=C1NCC[C@]12CC[C@H](c1cc(-c3ccc(C(F)(F)F)cc3)ccn1)N2 [Example 115, (2R,5R)-2-[4-[4-(Trifluoromethyl)phenyl]-2-pyridyl]-1,7-diazaspiro[4.4]nonan-6-one hydrochloride] | 2.51 µM | 31.6 µM
6 | CN1CC[C@]2(CC[C@@H](c3cc(-c4ccccc4F)ccn3)N2)C1=O [Example 34, (2S,5R)-2-[4-(2-Fluoro-phenyl)-pyridin-2-yl]-7-methyl-1,7-diaza-spiro[4.4]nonan-6-one hydrochloride] | 158 µM | 251 µM
7 | CC(C)COc1cc(-c2ccnc([C@H]3CC[C@@]4(CCN(C)C4=O)N3)c2)ccc1F [Example 194, (2R,5S)-2-[4-(4-Fluoro-3-isobutoxy-phenyl)-2-pyridyl]-7-methyl-1,7-diazaspiro[4.4]nonan-6-one hydrochloride] | 1 µM | 15.8 µM
8 | Cl.[2H]C([2H])(C)Oc1ccc(F)c(-c2ccnc([C@H]3CC[C@@]4(CCN(C)C4=O)N3)c2)c1 [Example 254, (2R,5S)-2-[4-[5-(1,1-Dideuterioethoxy)-2-fluoro-phenyl]-2-pyridyl]-7-methyl-1,7-diazaspiro[4.4]nonan-6-one hydrochloride] | 6.31 µM | 50.1 µM
9 | CCOc1ccc(-c2cc(C)nc([C@H]3CC[C@@]4(CCN(C)C4=O)N3)c2)cc1 [Example 89, (3R,5S)-3-[4-(4-Ethoxyphenyl)-6-methyl-2-pyridyl]-8-methyl-4,8-diazaspiro[4.4]nonan-9-one hydrochloride] | 3.16 µM | 50.1 µM
10 | CCOc1ccc(-c2cc(C)nc([C@@H]3CC[C@@]4(CCN(C)C4=O)N3)c2)cc1 [Example 88, (2S,5S)-2-[4-(4-Ethoxyphenyl)-6-methyl-2-pyridyl]-7-methyl-1,7-diazaspiro[4.4]nonan-6-one hydrochloride] | 31.6 µM | 316 µM
11 | CN1CC[C@]2(CC[C@H](c3cc(-c4ccc(C(F)(F)F)cc4)c(F)cn3)N2)C1=O [Example 61, (2R,5R)-2-[5-Fluoro-4-[4-(trifluoromethyl)phenyl]-2-pyridyl]-7-methyl-1,7-diazaspiro[4.4]nonan-6-one hydrochloride] | 6.31 µM | 100 µM
12 | CCOc1ccc(F)c(-c2cc(C)nc([C@@H]3CC[C@]4(CCN(C)C4=O)N3C)c2)c1 [Example 231, (2S,5R)-2-[4-(5-Ethoxy-2-fluoro-phenyl)-6-methyl-2-pyridyl]-1,7-dimethyl-1,7-diazaspiro-[4.4]nonan-6-one hydrochloride] | 1 µM | 12.6 µM
13 | Cc1cc(-c2cccc(OC(F)(F)F)c2)cc([C@@H]2CC[C@]3(CCN(C)C3=O)N2)n1 [Example 128, (2S,5R)-7-Methyl-2-[6-methyl-4-[3-(trifluoromethoxy)phenyl]-2-pyridyl]-1,7-diazaspiro[4.4]nonan-6-one hydrochloride] | 5.01 µM | 20 µM
14 | Cc1cc(-c2ccc(C(F)(F)F)cc2)cc([C@@H]2CC[C@]3(CCCNC3=O)N2)n1 [Example 98, (2S,5S)-2-[6-Methyl-4-(4-trifluoromethyl-phenyl)-pyridin-2-yl]-1,7-diaza-spiro[4.5]decan-6-one hydrochloride] | 0.631 µM | 25.1 µM
15 | CN1CCC[C@@]2(CC[C@@H](c3cc(-c4ccc(C(F)(F)F)cc4)ccn3)N2)C1=O [Example 68, (2S,5R)-7-Methyl-2-[4-(4-trifluoromethyl-phenyl)-pyridin-2-yl]-1,7-diaza-spiro[4.5]decan-6-one hydrochloride] | 5.01 µM | 25.1 µM
16 | CCOc1cccc(-c2cc(C)nc([C@H]3CC[C@@]4(CCN(C)C4=O)N3)c2)c1 [Example 207, (2R,5S)-2-[4-(3-Ethoxyphenyl)-6-methyl-2-pyridyl]-7-methyl-1,7-diazaspiro[4.4]nonan-6-one hydrochloride] | 6.31 µM | 79.4 µM
17 | CCOc1ccc(F)c(-c2cc([C@@H]3CC[C@]4(CCN(C)C4=O)N3)ncc2F)c1 [Example 221, (2S,5R)-2-[4-(5-Ethoxy-2-fluoro-phenyl)-5-fluoro-2-pyridyl]-7-methyl-1,7-diazaspiro[4.4]nonan-6-one hydrochloride] | 31.6 µM | 316 µM
18 | CCOc1ccc(F)c(-c2cc(C)nc([C@H]3CC[C@]4(CCNC4=O)N3)c2)c1 [Example 103, (2R,5R)-2-[4-(5-Ethoxy-2-fluoro-phenyl)-6-methyl-2-pyridyl]-1,7-diazaspiro[4.4]nonan-6-one hydrochloride] | 0.126 µM | 2.51 µM
19 | Cc1ccn(-c2ccc(F)c(-c3ccnc([C@H]4CC[C@@]5(CCN(C)C5=O)N4)c3)c2)n1 [Example 182, (2R,5S)-2-[4-[2-Fluoro-5-(3-methylpyrazol-1-yl)phenyl]-2-pyridyl]-7-methyl-1,7-diazaspiro[4.4]nonan-6-one hydrochloride] | 15.8 µM | 100 µM
20 | CCOc1ccc(F)c(-c2ccnc([C@H]3CC[C@@]4(CCN(C)C4=O)N3)c2C)c1 [Example 215, (2R,5S)-2-[4-(5-Ethoxy-2-fluoro-phenyl)-3-methyl-2-pyridyl]-7-methyl-1,7-diazaspiro[4.4]nonan-6-one hydrochloride] | 12.6 µM | 126 µM
21 | COc1cc(C(F)(F)F)ccc1-c1cc([C@H]2CC[C@@]3(CCN(C)C3=O)N2)ncc1C [Example 131, (2R,5S)-2-[4-[2-Methoxy-4-(trifluoromethyl)phenyl]-5-methyl-2-pyridyl]-7-methyl-1,7-diazaspiro[4.4]nonan-6-one hydrochloride] | 2 µM | 100 µM
22 | CCOc1ccc(F)c(-c2ccnc([C@@H]3CC[C@]4(CC(C)(C)NC4=O)N3)c2)c1 [Example 219, (2S,5R)-2-[4-(5-Ethoxy-2-fluoro-phenyl)-2-pyridyl]-8,8-dimethyl-1,7-diazaspiro[4.4]nonan-6-one hydrochloride] | 7.94 µM | 50.1 µM
23 | O=C1NCCC[C@@]12CC[C@H](c1cc(-c3ccc(C(F)(F)F)cc3)ccn1)N2 [Example 49, (2R,5R)-2-[4-(4-Trifluoromethyl-phenyl)-pyridin-2-yl]-1,7-diaza-spiro[4.5]decan-6-one hydrochloride] | 3.98 µM | 50.1 µM
24 | CCOc1ccc(F)c(-c2cc([C@H]3CC[C@]4(CCN(C)C4=O)N3)ncc2C)c1 [Example 140, (2R,5R)-2-[4-(5-Ethoxy-2-fluoro-phenyl)-5-methyl-2-pyridyl]-7-methyl-1,7-diazaspiro[4.4]nonan-6-one hydrochloride] | 31.6 µM | 100 µM
25 | CN1CCC[C@@]2(CC[C@H](c3cc(-c4ccc(F)cc4)ccn3)N2)C1=O [Example 71, (2R,5R)-2-[4-(4-Fluoro-phenyl)-pyridin-2-yl]-7-methyl-1,7-diaza-spiro[4.5]decan-6-one hydrochloride] | 20 µM | 126 µM
26 | Cc1ccc(-c2cc(C)nc([C@H]3CC[C@@]4(CCN(C)C4=O)N3)c2)cc1 [Example 87, (2R,5S)-7-Methyl-2-[6-methyl-4-(p-tolyl)-2-pyridyl]-1,7-diazaspiro[4.4]nonan-6-one hydrochloride] | 6.31 µM | 126 µM
27 | COc1cc(C(F)(F)F)ccc1-c1cc(C)nc([C@H]2CC[C@]3(CCN(C)C3=O)N2)c1 [Example 90, (3R,5R)-3-[4-[2-Methoxy-4-(trifluoromethyl)phenyl]-6-methyl-2-pyridyl]-8-methyl-4,8-diazaspiro[4.4]nonan-9-one hydrochloride] | 0.316 µM | 6.31 µM
28 | Cc1cc(-c2ccc(C(F)(F)F)cc2)cc([C@H]2CC[C@]3(CCNC3=O)N2C)n1 [Example 227, (2R,5R)-1-Methyl-2-[6-methyl-4-[4-(trifluoromethyl)phenyl]-2-pyridyl]-1,7-diazaspiro[4.4]nonan-6-one hydrochloride] | 12.6 µM | 158 µM
